Source: patent US8258116B2, “Combination therapy for the treatment of HCV infection” (Vertex Pharmaceuticals Incorporated, priority 2007, dated 2012)

Key:
Format in all cases: cell-based
[1] = test system: HCV NS3 protease variant replicon A156T; experiment: 2-Day HCV Replicon IC50 Assay, A156T; details: for Fold Change: A156T, ratio of mutant IC50 to Wild type IC50 for the same inhibitor; for IC50: Hepatitis C virus, read-out: Avg. IC50 ± STDEV
Description: (§1) Huh-7 cells were propagated in Dulbecco's modified Eagle's medium (DMEM, JRH Biosciences, Lenexa, Kans.) supplemented with 10% heat-inactivated FBS (fetal bovine serum), 2 mM L-glutamine, and nonessential amino acids (JRH). The cells were transfected with an in vitro transcribed HCV replicon RNA identical to replicon 1377neo/NS3-3′/wt as described by Lohmann et al. (1999). Stable cell clones were selected and maintained in the presence of 250 μg/mL G418 (Invitrogen, Carlsbad, Calif.). […] The HCV NS3 protease variant replicons were constructed in the background of the mADE wild-type replicon as described previously [Chao Lin et al., “In Vitro Resistance Studies of Hepatitis C Virus Serine Protease Inhibitors, VX-950 and BILN 2061: Structural Analysis Indicates Different Resistance Mechanisms,” Journal of Biological Chemistry, 279(17); pp. 17508-17514 (2004)]. The replicon cells were propagated in DMEM supplemented with 10% FBS, 2 mM L-glutamine, nonessential amino acids, and 250 μg/mL G418. The cells were split twice per week in fresh media upon reaching confluence. There are approximately 200-300 copies of HCV RNA per 24-2 replicon cell.
(§2) HCV replicon RNA from cells was measured using the Quantigene Discover XL kit (Panomics Inc., Fremont Calif.) as per the manufacturer's instructions. Briefly, compound-treated replicon cells were lysed and immobilized on to capture plates using HCV specific oligonucleotides (designed based on the 5′ UTR region of HCV 1b genome sequence AJ238799 in the GenBank database) over night and the relative amounts of captured RNA was measured using oligonucleotide probe sets as per the manufacturer's instructions.
(§3) On the day prior to the assay, 10,000 replicon cells were plated per well of a 96-well plate and allowed to attach and grow overnight in DMEM (Invitrogen, Carlsbad, Calif.) supplemented with 10% heat-inactivated FBS (JRH Biosciences, Lenexa, Kans.), 2 mM L-glutamine (Invitrogen), nonessential amino acids (Invitrogen) and 250 μg/ml G418 (Invitrogen). Next day, the medium was removed and antiviral agents that were serially diluted in DMEM containing 2% FBS and 0.5% DMSO (Sigma Chemical Co., St. Louis, Mo.) without G418, was added. The replicon cells were incubated with the antiviral agents for 48 h. HCV replicon RNA from cells was measured using the Quantigene Discover XL kit (Panomics Inc., Fremont Calif.) as per the manufacturer's instructions. Briefly, compound-treated replicon cells were lysed and immobilized onto capture plates using HCV specific oligonucleotides overnight and the relative amounts of captured RNA was measured using oligonucleotide probe sets as per the manufacturer's instructions. Unless indicated otherwise, each data point represents the average of three replicates. The IC50 is the concentration of the compound at which the HCV replicon RNA level in cells is reduced by 50% as compared to the untreated replicon cell controls. To monitor the effect of compounds on cell proliferation or cell viability, replicon cells were treated with serially diluted compounds for 48 h, after which cell viability was determined using a CellTiter Glo assay (Promega, Madison, Wis.). Each CC50 is derived from at least two replicates and is the concentration of the compound at which the number of viable cells is reduced by 50% as compared to untreated cell controls. The IC50 and CC50 was determined using 4-parameter curve fitting in the SoftMax Pro program (Molecular Devices, Sunnyvale, Calif.).
(§4) The sensitivity of NS3 protease variants to ribavirin and interferon was assessed in a 2-Day HCV Replicon IC50 Assay.

[2] = test system: HCV NS3 protease variant replicon A156V; experiment: 2-Day HCV Replicon IC50 Assay, A156V; details: for Fold Change: A156V, ratio of mutant IC50 to Wild type IC50 for the same inhibitor; for IC50: Hepatitis C virus, read-out: Avg. IC50 ± STDEV
Description: as §1, §2, §3, §4

[3] = test system: HCV replicon cells (wild-type clone 24-2, Huh-7); experiment: 2-day Replicon assay with bDNA quantitation, checkerboard combination (Bliss independence / MacSynergy); details: Hepatitis C virus, Huh-7, 48 h, polymerase inhibitor in the checkerboard experiment with VX-950, read-out: Polymerase Inhibitor IC50
Description: Huh-7 cells were propagated in Dulbecco's modified Eagle's medium (DMEM, JRH Biosciences, Lenexa, Kans.) supplemented with 10% heat-inactivated FBS (fetal bovine serum), 2 mM L-glutamine, and nonessential amino acids (JRH). The cells were transfected with an in vitro transcribed HCV replicon RNA identical to replicon 1377neo/NS3-3′/wt as described by Lohmann et al. (1999). Stable cell clones were selected and maintained in the presence of 250 μg/mL G418 (Invitrogen, Carlsbad, Calif.). One of the clones, 24-2, was used as the wild-type in the subsequent HCV replicon assays for combination studies. The HCV NS3 protease variant replicons were constructed in the background of the mADE wild-type replicon as described previously [Chao Lin et al., “In Vitro Resistance Studies of Hepatitis C Virus Serine Protease Inhibitors, VX-950 and BILN 2061: Structural Analysis Indicates Different Resistance Mechanisms,” Journal of Biological Chemistry, 279(17); pp. 17508-17514 (2004)]. The replicon cells were propagated in DMEM supplemented with 10% FBS, 2 mM L-glutamine, nonessential amino acids, and 250 μg/mL G418. The cells were split twice per week in fresh media upon reaching confluence. There are approximately 200-300 copies of HCV RNA per 24-2 replicon cell.
as §2, §3
The effects of drug-drug combinations were evaluated using the Bliss independence model [W. R. Greco et al., “The search for synergy: a critical review from a response surface perspective,” Pharmacol. Rev., 47, pp. 331-385 (1995)]. The experimental data were analyzed by using MacSynergy, a three-dimensional analytical method developed by Prichard and Shipman [M. N. Prichard and C. […]

[4] = test system: HCV NS3 protease variant replicon V36A; experiment: microbe, parasite or virus in culture; details: for IC50: Hepatitis C virus, read-out: Avg. IC50 ± STDEV; for Fold Change: V36A, ratio of mutant IC50 to Wild type IC50 for the same inhibitor
Description: as §1, §2, §3, §4

[5] = test system: HCV NS3 protease variant replicon V36M+R155K; experiment: microbe, parasite or virus in culture; details: V36M-R155K; ratio of mutant IC50 to Wild type IC50 for the same inhibitor
Description: as §1, §2, §3, §4

[6] = test system: HCV NS3 protease variant replicon V36M; experiment: microbe, parasite or virus in culture; details: for IC50: Hepatitis C virus, read-out: Avg. IC50 ± STDEV; for Fold Change: V36M, ratio of mutant IC50 to Wild type IC50 for the same inhibitor
Description: as §1, §2, §3, §4

[7] = test system: HCV NS3 protease variant replicon R155K; experiment: microbe, parasite or virus in culture; details: for IC50: Hepatitis C virus, read-out: Avg. IC50 ± STDEV; for Fold Change: R155K, ratio of mutant IC50 to Wild type IC50 for the same inhibitor
Description: as §1, §2, §3, §4

[8] = test system: HCV NS3 protease variant replicon T54A; experiment: microbe, parasite or virus in culture; details: for IC50: Hepatitis C virus, read-out: Avg. IC50 ± STDEV; for Fold Change: T54A, ratio of mutant IC50 to Wild type IC50 for the same inhibitor
Description: as §1, §2, §3, §4

[9] = test system: HCV replicon Wild Type (mADE); experiment: 2-Day HCV Replicon IC50 Assay, wild type replicon; details: Wild Type replicon; for IC50: Hepatitis C virus, Table 8, read-out: Avg. IC50 ± STDEV; for Fold Change: ratio of IC50 to Wild type IC50 for the same inhibitor
Description: as §1, §2, §3, §4

Row | SMILES | Fold Change [1] | IC50 [1] [µM] | Fold Change [2] | IC50 [2] [µM] | IC50 [3] [µM] | IC50 [4] [µM] | Fold Change [4] | Fold Change [5] | IC50 [6] [µM] | Fold Change [6] | IC50 [7] [µM] | Fold Change [7] | IC50 [8] [µM] | Fold Change [8] | IC50 [9] [µM] | Fold Change [9]
1 | C[C@@]1(O)[C@H](O)[C@@H](CO)O[C@H]1n1ccc(N)nc1=O [Formula I] | 0.9 | 1.27 ± 0.185 | 1.0 | 1.31 ± 0.216 | 7.21 | 2.15 ± 0.874 | 1.6 | 2.0 | 1.59 ± 0.361 | 1.2 | 2.37 ± 0.678 | 1.8 | 1.98 ± 0.388 | 1.5 | 1.34 ± 0.473 | 1.0
2 | O=c1c(C2=NS(=O)(=O)c3ccccc3N2)c(O)c2ccccc2n1NC1CCC1 [Formula II] | 0.9 | 0.326 ± 0.003 | 0.8 | 0.264 ± 0.045 | 1.04 | 0.571 ± 0.093 | 1.6 | 1.7 | 0.36 ± 0.164 | 1.0 | 0.45 ± 0.023 | 1.3 | 0.564 ± 0.111 | 1.6 | 0.347 ± 0.108 | 1.0
